# Results: ChEMBL document CHEMBL5291721, “A preclinical secondary pharmacology resource illuminates target-adverse drug reaction associations of marketed drugs” (Nat Commun, 2023)
# What was measured:
# [1] = biological target: T1, Cholecystokinin receptor type A (Homo sapiens, UniProt P32238)
# T1 sequence (P32238 whole entry): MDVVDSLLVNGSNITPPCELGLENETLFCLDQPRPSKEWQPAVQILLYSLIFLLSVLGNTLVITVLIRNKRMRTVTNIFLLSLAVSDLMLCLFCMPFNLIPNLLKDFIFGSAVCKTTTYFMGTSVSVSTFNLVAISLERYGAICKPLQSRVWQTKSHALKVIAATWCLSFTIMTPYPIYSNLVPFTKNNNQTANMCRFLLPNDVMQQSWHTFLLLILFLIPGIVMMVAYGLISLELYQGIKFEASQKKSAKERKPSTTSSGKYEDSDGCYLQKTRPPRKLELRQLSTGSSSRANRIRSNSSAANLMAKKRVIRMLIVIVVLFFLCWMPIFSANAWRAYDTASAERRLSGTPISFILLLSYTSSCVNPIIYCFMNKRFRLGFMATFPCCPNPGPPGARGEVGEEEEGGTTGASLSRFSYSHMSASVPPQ
# [2] = biological target: Gamma-aminobutyric acid receptor subunit alpha-1 (Rattus norvegicus, UniProt P62813); format: functional
# Sequence of Gamma-aminobutyric acid receptor subunit alpha-1 (P62813 whole entry): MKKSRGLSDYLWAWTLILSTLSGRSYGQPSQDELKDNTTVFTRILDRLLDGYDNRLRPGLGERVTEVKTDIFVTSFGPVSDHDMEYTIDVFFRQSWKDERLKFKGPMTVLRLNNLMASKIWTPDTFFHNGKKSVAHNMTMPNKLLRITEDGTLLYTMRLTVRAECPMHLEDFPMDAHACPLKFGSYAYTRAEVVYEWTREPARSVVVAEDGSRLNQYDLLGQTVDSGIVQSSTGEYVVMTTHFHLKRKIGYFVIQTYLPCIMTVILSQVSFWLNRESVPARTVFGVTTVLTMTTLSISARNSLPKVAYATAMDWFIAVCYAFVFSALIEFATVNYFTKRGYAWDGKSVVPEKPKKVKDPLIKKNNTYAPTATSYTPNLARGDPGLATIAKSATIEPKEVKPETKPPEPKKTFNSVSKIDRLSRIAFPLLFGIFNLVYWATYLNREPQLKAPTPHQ
# [3] = biological target: Sodium-dependent noradrenaline transporter (Homo sapiens, UniProt P23975)
# Sequence of Sodium-dependent noradrenaline transporter (P23975 whole entry): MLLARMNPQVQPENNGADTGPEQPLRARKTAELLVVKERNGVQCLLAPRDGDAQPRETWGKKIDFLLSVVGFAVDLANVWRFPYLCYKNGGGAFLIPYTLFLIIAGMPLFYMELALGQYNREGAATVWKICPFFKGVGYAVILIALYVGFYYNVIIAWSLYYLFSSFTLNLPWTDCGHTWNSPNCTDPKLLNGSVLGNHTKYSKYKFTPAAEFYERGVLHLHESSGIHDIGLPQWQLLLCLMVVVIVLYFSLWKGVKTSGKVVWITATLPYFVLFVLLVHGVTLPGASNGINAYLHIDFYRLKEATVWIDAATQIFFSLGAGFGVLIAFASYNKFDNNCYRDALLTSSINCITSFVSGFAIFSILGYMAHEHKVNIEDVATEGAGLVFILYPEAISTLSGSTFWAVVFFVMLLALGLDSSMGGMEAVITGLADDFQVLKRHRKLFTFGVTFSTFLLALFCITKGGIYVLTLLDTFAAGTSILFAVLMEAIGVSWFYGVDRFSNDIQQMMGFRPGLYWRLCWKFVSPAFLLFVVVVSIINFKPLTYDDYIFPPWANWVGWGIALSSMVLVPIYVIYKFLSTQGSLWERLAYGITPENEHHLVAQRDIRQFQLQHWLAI
# [4] = biological target: Beta-1 adrenergic receptor (Homo sapiens, UniProt P08588); format: functional
# Sequence of Beta-1 adrenergic receptor (P08588 whole entry): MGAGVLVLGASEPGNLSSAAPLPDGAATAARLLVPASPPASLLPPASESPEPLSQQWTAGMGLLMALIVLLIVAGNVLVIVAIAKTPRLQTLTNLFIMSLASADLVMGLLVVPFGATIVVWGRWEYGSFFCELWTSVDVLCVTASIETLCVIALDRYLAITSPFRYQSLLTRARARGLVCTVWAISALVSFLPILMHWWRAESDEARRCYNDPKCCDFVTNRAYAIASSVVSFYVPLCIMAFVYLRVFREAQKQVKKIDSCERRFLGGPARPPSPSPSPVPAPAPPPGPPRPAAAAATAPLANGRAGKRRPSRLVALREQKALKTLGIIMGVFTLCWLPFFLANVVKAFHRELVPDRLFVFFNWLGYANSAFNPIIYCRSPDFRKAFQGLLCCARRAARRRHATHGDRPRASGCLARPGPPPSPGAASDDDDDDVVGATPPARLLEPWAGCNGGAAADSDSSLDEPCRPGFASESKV
# Bile salt export pump = Bile salt export pump (Homo sapiens, UniProt O95342); format: functional
# Sequence of Bile salt export pump (O95342 whole entry): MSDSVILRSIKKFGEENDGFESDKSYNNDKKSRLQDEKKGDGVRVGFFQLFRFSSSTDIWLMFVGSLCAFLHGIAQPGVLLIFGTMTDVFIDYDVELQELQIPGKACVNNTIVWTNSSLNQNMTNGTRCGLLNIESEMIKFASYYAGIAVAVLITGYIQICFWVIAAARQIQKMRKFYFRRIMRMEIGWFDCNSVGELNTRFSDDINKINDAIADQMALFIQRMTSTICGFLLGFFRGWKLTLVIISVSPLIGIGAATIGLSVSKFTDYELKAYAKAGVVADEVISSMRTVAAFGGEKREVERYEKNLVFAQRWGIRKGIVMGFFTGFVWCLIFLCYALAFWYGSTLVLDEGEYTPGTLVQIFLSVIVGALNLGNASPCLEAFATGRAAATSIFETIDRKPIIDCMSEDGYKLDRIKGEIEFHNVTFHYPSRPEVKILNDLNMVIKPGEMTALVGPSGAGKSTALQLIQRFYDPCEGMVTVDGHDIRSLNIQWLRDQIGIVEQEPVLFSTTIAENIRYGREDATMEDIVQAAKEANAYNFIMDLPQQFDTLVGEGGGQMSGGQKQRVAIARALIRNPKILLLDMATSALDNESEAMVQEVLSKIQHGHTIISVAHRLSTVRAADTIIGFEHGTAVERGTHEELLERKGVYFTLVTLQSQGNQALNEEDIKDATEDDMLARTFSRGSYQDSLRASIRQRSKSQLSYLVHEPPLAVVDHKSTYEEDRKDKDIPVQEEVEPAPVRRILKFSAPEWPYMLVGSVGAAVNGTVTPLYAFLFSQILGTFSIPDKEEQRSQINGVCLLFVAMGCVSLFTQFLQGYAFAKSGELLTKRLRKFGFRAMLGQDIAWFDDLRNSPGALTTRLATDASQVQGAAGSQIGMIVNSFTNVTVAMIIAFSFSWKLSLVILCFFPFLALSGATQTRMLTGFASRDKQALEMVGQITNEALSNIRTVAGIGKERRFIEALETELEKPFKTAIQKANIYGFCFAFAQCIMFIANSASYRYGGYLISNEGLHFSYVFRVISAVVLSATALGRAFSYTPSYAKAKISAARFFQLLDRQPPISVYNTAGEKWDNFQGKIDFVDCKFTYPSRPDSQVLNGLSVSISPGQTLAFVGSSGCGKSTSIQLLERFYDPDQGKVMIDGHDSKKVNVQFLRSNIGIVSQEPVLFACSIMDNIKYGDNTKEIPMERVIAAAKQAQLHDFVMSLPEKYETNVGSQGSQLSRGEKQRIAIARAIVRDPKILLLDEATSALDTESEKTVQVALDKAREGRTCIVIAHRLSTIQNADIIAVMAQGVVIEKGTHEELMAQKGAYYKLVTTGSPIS
# [5] = biological target: T2, 5-hydroxytryptamine receptor 2C (Homo sapiens, UniProt P28335)
# T2 sequence (P28335 whole entry): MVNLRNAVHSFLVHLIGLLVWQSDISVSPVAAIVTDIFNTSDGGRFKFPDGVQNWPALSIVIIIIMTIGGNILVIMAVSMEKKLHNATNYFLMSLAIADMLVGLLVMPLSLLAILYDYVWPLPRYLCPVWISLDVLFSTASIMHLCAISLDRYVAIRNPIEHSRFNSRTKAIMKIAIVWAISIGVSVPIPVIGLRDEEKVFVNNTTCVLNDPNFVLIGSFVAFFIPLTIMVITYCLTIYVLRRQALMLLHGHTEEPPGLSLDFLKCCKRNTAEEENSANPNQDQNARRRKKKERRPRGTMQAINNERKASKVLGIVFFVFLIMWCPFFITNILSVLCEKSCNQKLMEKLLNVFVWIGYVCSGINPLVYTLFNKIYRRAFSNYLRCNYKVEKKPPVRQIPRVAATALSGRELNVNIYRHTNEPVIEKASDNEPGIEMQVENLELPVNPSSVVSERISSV
# [6] = biological target: cGMP-inhibited 3',5'-cyclic phosphodiesterase 3A (Homo sapiens, UniProt Q14432); format: functional
# [7] = biological target: T3, Alpha-2C adrenergic receptor (Homo sapiens, UniProt P18825); format: functional
# T3 sequence (P18825 whole entry): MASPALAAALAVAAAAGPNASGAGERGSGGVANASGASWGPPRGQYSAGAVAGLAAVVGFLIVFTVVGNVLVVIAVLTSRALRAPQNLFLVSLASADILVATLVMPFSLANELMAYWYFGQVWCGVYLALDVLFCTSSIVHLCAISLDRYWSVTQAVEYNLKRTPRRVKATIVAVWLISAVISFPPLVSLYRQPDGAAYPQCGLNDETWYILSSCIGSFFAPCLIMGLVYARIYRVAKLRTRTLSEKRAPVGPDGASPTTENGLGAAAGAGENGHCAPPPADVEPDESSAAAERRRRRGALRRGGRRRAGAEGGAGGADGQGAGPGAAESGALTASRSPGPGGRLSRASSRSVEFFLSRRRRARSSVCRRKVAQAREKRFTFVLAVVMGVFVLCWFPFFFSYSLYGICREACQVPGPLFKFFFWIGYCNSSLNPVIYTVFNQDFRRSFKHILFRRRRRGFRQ
# [8] = biological target: 5-hydroxytryptamine receptor 2B (Homo sapiens, UniProt P41595); format: functional, cell-based
# Sequence of 5-hydroxytryptamine receptor 2B (P41595 whole entry): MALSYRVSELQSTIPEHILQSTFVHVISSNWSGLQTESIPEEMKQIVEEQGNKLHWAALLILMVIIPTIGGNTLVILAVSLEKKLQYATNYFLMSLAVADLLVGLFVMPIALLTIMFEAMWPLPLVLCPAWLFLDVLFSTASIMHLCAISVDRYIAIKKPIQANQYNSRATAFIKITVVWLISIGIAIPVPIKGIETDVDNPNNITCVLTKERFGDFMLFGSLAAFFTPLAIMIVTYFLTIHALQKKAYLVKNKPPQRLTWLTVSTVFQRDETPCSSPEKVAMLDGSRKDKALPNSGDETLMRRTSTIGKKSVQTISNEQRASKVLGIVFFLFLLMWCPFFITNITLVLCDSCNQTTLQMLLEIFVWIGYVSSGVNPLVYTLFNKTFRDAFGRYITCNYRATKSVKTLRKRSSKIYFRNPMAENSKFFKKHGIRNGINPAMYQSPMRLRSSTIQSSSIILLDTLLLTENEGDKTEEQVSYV
# [9] = biological target: T4, Muscarinic acetylcholine receptor M2 (Homo sapiens, UniProt P08172); format: functional, cell-based
# T4 sequence (P08172 whole entry): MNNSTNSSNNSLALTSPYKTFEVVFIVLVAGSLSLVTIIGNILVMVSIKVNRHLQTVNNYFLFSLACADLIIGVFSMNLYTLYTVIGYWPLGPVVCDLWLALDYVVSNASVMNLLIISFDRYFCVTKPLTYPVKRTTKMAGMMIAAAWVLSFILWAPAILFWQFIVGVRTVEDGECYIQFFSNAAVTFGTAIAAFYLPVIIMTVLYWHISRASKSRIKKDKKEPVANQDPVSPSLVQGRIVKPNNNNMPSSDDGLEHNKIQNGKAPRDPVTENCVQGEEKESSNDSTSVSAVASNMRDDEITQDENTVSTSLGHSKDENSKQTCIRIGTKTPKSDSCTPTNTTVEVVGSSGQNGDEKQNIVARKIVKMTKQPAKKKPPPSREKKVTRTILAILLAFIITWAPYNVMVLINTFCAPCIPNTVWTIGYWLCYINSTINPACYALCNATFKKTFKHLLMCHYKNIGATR
# [10] = biological target: Delta-type opioid receptor (Homo sapiens, UniProt P41143)
# Sequence of Delta-type opioid receptor (P41143 whole entry): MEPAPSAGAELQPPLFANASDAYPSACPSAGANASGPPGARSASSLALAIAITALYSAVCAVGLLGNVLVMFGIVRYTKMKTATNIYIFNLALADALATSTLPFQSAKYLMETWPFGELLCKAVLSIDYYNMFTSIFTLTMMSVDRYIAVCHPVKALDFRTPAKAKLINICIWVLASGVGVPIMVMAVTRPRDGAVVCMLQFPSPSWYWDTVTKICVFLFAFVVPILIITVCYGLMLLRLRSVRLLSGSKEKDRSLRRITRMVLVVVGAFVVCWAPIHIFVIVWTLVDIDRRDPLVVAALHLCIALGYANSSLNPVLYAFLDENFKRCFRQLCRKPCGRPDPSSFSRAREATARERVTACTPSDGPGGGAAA
# [11] = biological target: Growth hormone secretagogue receptor type 1 (Homo sapiens, UniProt Q92847)
# Sequence of Growth hormone secretagogue receptor type 1 (Q92847 whole entry): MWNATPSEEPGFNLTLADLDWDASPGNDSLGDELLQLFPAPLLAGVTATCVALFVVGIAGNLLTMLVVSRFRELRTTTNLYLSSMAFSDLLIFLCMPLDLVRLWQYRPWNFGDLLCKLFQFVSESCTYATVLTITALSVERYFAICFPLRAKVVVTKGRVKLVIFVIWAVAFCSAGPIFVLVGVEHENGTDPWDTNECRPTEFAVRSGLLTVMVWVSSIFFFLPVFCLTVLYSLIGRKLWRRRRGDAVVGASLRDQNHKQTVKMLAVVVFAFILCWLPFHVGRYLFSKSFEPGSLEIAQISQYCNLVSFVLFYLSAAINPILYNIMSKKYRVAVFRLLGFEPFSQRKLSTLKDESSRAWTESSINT
# [12] = biological target: T4, Muscarinic acetylcholine receptor M2; format: functional, cell-based; remark: listed apart in the source
# D(3) dopamine receptor = D(3) dopamine receptor (Homo sapiens, UniProt P35462)
# Sequence of D(3) dopamine receptor (P35462 whole entry): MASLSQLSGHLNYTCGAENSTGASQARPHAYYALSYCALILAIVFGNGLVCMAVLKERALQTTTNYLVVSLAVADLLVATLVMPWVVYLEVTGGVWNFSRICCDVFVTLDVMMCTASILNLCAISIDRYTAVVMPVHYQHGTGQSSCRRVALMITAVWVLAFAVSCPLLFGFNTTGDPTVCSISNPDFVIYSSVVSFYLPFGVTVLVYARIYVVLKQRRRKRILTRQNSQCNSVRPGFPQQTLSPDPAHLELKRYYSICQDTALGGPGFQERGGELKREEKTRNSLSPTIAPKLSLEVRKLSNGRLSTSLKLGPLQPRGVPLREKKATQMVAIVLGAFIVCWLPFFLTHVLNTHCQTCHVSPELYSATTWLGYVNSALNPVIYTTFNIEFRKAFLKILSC
# Vasopressin V1a receptor = Vasopressin V1a receptor (Homo sapiens, UniProt P37288)
# Sequence of Vasopressin V1a receptor (P37288 whole entry): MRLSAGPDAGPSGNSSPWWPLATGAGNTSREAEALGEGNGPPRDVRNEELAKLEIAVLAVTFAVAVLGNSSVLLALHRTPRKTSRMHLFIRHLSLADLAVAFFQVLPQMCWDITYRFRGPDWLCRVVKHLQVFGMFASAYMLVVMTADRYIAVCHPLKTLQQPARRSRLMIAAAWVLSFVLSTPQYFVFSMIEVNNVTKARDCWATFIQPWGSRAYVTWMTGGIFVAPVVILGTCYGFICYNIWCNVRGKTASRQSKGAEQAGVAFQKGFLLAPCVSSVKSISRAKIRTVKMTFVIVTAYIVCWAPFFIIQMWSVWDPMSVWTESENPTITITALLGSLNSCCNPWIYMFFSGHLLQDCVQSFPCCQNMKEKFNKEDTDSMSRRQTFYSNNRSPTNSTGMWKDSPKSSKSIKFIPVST
# Also: assay procedure not described here.
SMILES,AC50 [1] [µM],AC50 [2] [µM],AC50 [3] [µM],AC50 [4] [µM],AC50 (Bile salt export pump) [µM],AC50 [5] [µM],AC50 [6] [µM],AC50 [7] [µM],AC50 [8] [µM],AC50 [9] [µM],AC50 [10] [µM],AC50 [11] [µM],AC50 [12] [µM],AC50 (D(3) dopamine receptor) [µM],AC50 (Vasopressin V1a receptor) [µM]
Clc1ccc2nsnc2c1NC1=NCCN1 [TIZANIDINE],> 30,> 10,> 10,> 10,> 300,> 30,> 30,1.31,> 30,> 30,> 30,> 30,> 30,> 10,> 10
COc1ccccc1OCC(O)CN1CCN(CC(=O)Nc2c(C)cccc2C)CC1 (stereo not drawn) [RANOLAZINE],> 30,> 30,> 30,7.8,> 300,> 30,> 30,1.4,> 30,> 30,> 30,> 30,> 30,18,> 30
Cc1cccc(Nc2ccccc2C(=O)O)c1C [MEFENAMIC ACID],> 10,> 10,> 10,> 10,150,> 30,> 30,> 10,> 10,> 10,> 30,> 10,> 10,> 30,> 10
CCOC(=O)[C@H](CCc1ccccc1)N[C@@H](C)C(=O)N1[C@H](C(=O)O)C[C@@H]2CCC[C@@H]21,> 30,> 10,> 10,> 10,> 300,> 30,> 30,> 10,> 10,> 10,> 30,> 30,> 10,> 10,> 10
C[C@@H](O)[C@H]1C(=O)N2C(C(=O)O)=C(S[C@@H]3CN[C@H](C(=O)N(C)C)C3)[C@H](C)[C@H]12 [MEROPENEM],> 300,> 10,> 300,> 300,> 300,> 300,> 300,> 300,> 300,> 300,> 300,> 300,> 300,> 300,> 300
C[C@H]1CNCCc2ccc(Cl)cc21 [LORCASERIN],> 30,> 30,14,8.3,> 300,,> 30,3.6,,> 30,> 30,> 30,> 30,> 30,> 30
Cn1nnc2c(C(N)=O)ncn2c1=O [TEMOZOLOMIDE],> 30,> 30,> 30,> 30,> 300,> 30,> 30,> 30,> 30,> 30,> 30,> 30,> 30,> 30,> 30
CCCN1C[C@H](CSC)C[C@@H]2c3cccc4[nH]cc(c34)C[C@H]21 [PERGOLIDE],> 30,> 30,> 30,> 30,> 10,,> 30,1.04,0.0155,> 30,> 30,> 30,> 30,,> 30
C[C@]12CCC(=O)C=C1CC[C@@H]1[C@@H]2[C@@H](O)C[C@@]2(C)[C@H]1CC[C@]2(O)C(=O)CO [HYDROCORTISONE],> 30,> 10,> 10,> 10,> 300,> 30,> 30,> 10,> 10,> 10,> 30,> 30,> 10,> 10,> 10
COc1ccc(CC(C)(C)NC[C@H](O)c2cc(O)cc3c2OCC(=O)N3)cc1 [OLODATEROL],> 30,> 30,> 30,0.58,> 300,> 30,> 30,> 30,> 30,5.1,> 30,> 30,> 30,> 30,> 30
CN1C(=O)CCS(=O)(=O)C1c1ccc(Cl)cc1 (stereo not drawn) [CHLORMEZANONE],> 10,> 10,> 10,> 10,> 300,> 30,> 30,> 30,> 10,> 10,> 30,> 10,> 10,> 30,> 10
Cc1nc([N+](=O)[O-])cn1-c1ccc([N+](=O)[O-])cc1 [NITREFAZOLE],> 30,> 30,,> 30,> 300,> 30,> 30,> 30,> 30,> 30,> 30,> 30,> 30,> 30,> 30
CC(C)C[C@H]1C(=O)N2CCC[C@H]2[C@]2(O)O[C@](NC(=O)[C@@H]3C=C4c5cccc6[nH]c(Br)c(c56)C[C@H]4N(C)C3)(C(C)C)C(=O)N12 [BROMOCRIPTINE],> 30,> 30,> 30,9.23,1.6,12,> 30,,25,> 30,> 30,25,28,0.105,> 30
CC(=O)NCCCS(=O)(=O)O [ACAMPROSATE],> 30,> 30,,> 30,> 300,> 30,> 30,> 30,> 30,> 30,> 30,> 30,> 30,> 30,> 30
